Data: patent publication US20250327097A1, “ORGANISMS PRODUCING LESS CROTONIC ACID” (Global Bioenergies, priority 2021, published 2025)

B1: FabV: purified FabV from Treponema denticola (EC 1.3.1.44), Uniprot Q73Q47 (protein, listed as Treponema denticola)
chain: MIVKPMVRNNICLNAHPQGCKKGVEDQIEYTKKRITAEVKAGAKAPKNVLVLGCSNGYGLASRITAAFGYGAATIGVSFEKAGSETKYGTPGWYNNLAFDEAAKREGLYSVTIDGDAFSDEIKAQVIEEAKKKGIKFDLIVYSLASPVRTDPDTGIMHKSVLKPFGKTFTGKTVDPFTGELKEISAEPANDEEAAATVKVMGGEDWERWIKQLSKEGLLEEGCITLAYSYIGPEATQALYRKGTIGKAKEHLEATAHRLNKENPSIRAFVSVNKGLVTRASAVIPVIPLYLASLFKVMKEKGNHEGCIEQITRLYAERLYRKDGTIPVDEENRIRIDDWELEEDVQKAVSALMEKVTGENAESLTDLAGYRHDFLASNGFDVEGINYEAEVERFDRI
modifications: FabV
notes: purified FabV from Treponema denticola (EC 1.3.1.44), Uniprot Q73Q47
B2: CdFdc-UbiX: Fdc homologue, Uniprot B9WJ66, co-expressed with UbiX in pETDuet (protein, UniProt B9WJ66 1-513, looked up)
Ferulic acid decarboxylase 1: MSLNPALKFRDFIQVLKNEGDLIEIDTEVDPNLEVGAITRKAYENKLAAPLFNNLKQDPENIDPKNLFRILGCPGGLRGFGNDHARIALHLGLDSQTPMKEIIDFLVANRNPKKYIPPVLVPNDQSPHKKHHLTKEQIDLTKLPVPLLHHGDGGKFIQTYGMWVLQTPDKSWTNWSIARGMVHDSKSITGLVINPQHVKQVSDAWVAAGKGDKIPFALCFGVPPAAILVSSMPIPDGATEAEYIGGLCNQAVPVVKCETNDLEVPADCEMVFEGYLDRDTLVREGPFGEMHGYCFPKDHHTQPLYRVNHISYRDQAIMPISNPGLCTDETHTLIGGLVSAETKYLISQHPVLSKIVEDVFTPYEAQALWLAVKINTHELVKLKTNAKELSNLVGDFLFRSKECYKVCSILHEIILVGDDIDIFDFKQLIWAYTTRHTPVQDQLYFDDVKPFALAPFASQGPLIKTRQGGKCVTTCIFPKQFTDPDFEFVTCNFNGYPEEVKNKISQNWDKYYK
modifications: co-expressed with UbiX
notes: Fdc homologue, Uniprot B9WJ66, co-expressed with UbiX in pETDuet
B3: ScFdc-UbiX: Fdc homologue, Uniprot Q03034, co-expressed with UbiX in pETDuet (protein, UniProt Q03034 1-503, looked up)
Ferulic acid decarboxylase 1: MRKLNPALEFRDFIQVLKDEDDLIEITEEIDPNLEVGAIMRKAYESHLPAPLFKNLKGASKDLFSILGCPAGLRSKEKGDHGRIAHHLGLDPKTTIKEIIDYLLECKEKEPLPPITVPVSSAPCKTHILSEEKIHLQSLPTPYLHVSDGGKYLQTYGMWILQTPDKKWTNWSIARGMVVDDKHITGLVIKPQHIRQIADSWAAIGKANEIPFALCFGVPPAAILVSSMPIPEGVSESDYVGAILGESVPVVKCETNDLMVPATSEMVFEGTLSLTDTHLEGPFGEMHGYVFKSQGHPCPLYTVKAMSYRDNAILPVSNPGLCTDETHTLIGSLVATEAKELAIESGLPILDAFMPYEAQALWLILKVDLKGLQALKTTPEEFCKKVGDIYFRTKVGFIVHEIILVADDIDIFNFKEVIWAYVTRHTPVADQMAFDDVTSFPLAPFVSQSSRSKTMKGGKCVTNCIFRQQYERSFDYITCNFEKGYPKGLVDKVNENWKRYGYK
modifications: co-expressed with UbiX
notes: Fdc homologue, Uniprot Q03034, co-expressed with UbiX in pETDuet
B4: UbiX alone: UbiX (E. coli K-12) expressed without Fdc, control (protein, UniProt P0AG03 1-189, looked up)
Flavin prenyltransferase UbiX: MKRLIVGISGASGAIYGVRLLQVLRDVTDIETHLVMSQAARQTLSLETDFSLREVQALADVTHDARDIAASISSGSFQTLGMVILPCSIKTLSGIVHSYTDGLLTRAADVVLKERRPLVLCVRETPLHLGHLRLMTQAAEIGAVIMPPVPAFYHRPQSLDDVINQTVNRVLDQFAITLPEDLFARWQGA

Assays:
TaFdcV = experiment: Acid binding and cycloadduct formation with TaFdcV (UV-Vis, ESI-MS, co-crystallization)
Procedure: TaFdcV (500 μL, 0.45 mM protein, 25 mM HEPES, 150 mM KCl, pH 6.8) was incubated with crotonic or 2-butynoic acid. The formation of the prFMN-crotonic acid cycloadduct was followed by UV-Vis spectroscopy and additional acid were added until full conversion (complete loss of the 380 nm peak). The protein was desalted to 25 mM HEPES, 150 mM KCl, pH 6.8 and plated for crystal trials.

TaFdc = experiment: Acid binding and cycloadduct formation with TaFdc wild-type (UV-Vis)
AnFdc = AnFdc (Aspergillus niger, UniProt A2QHE5); experiment: Quantitative GC assay of pentene production from hexenoic acid; assay type: biochemical
[1] = tested on: ferulic acid decarboxylase (FDC); experiment: Inhibition of ferulic acid decarboxylase; assay type: biochemical
Excerpt: In recombinant organisms or microorganisms, 3-methylcrotonic acid, the substrate of FDC, can be produced from acetyl-CoA in a multistep enzymatic process. The final conversion of 3-methylcrotonic acid into isobutene can be carried out in the same recombinant organism or microorganism that has been used for the production of 3-methylcrotonic acid. In such a one-step process, it is required that the recombinant organism or microorganism encodes the enzyme FDC. Alternatively, isobutene may be produced from 3-methylcrotonic acid in a two-step process. For that, a fermentation culture medium of a recombinant organism or microorganism comprising the produced 3-methylcrotonic acid may be contacted with a recombinant organism or microorganism encoding the enzyme FDC in an in vivo or in vitro biotransformation reaction. In an alternative two-step process, a first recombinant organism or microorganism may be used to convert acetyl-CoA into 3-hydroxyisovaleric acid and the produced 3-hydroxyisovaleric acid may then be converted into isobutene by a second recombinant organism or microorganism (via 3-methylcrotonic acid and FDC).

AnFdcII = AnFdcII (Aspergillus niger, UniProt A2QHE5, P438W/R435P/T395M); assay type: binding
AnFdc wild-type = AnFdc wild-type (Aspergillus niger, UniProt A2QHE5); experiment: Crotonic acid binding by UV-Vis spectra, AnFdc wild-type; conditions: 2-h incubation
crotonyl-CoA = experiment: Coupled assay positive control: purified FabV with crotonyl-CoA; assay type: biochemical, Treponema denticola; conditions: 1 mM crotonyl-CoA, 100 μg/ml FabV, 18 h at 34° C.
Procedure: The acid-CoA ligases were tested as purified enzymes with a coupled assay using purified FabV from Treponema denticola (EC 1.3.1.44) (Uniprot Accession No: Q73Q47) (to convert crotonyl-CoA to butyryl-CoA). The reaction was carried out as follows: 50 μg/ml acid-CoA ligase and 100 μg/ml FabV with a buffered solution containing 100 mM Tris-HCl pH7.5, 20 mM NaCl, 100 mM KCl, 2 mM MgCl2, 1 mM crotonic acid (TCI chemicals), 1 mM ATP (Sigma-Aldrich), 1 mM coenzyme A (Sigma-Aldrich) and 1 mM NADH (Sigma-Aldrich) were incubated 18 h at 34° C. in a water bath, and the reaction was stopped with acetonitrile. […] The produced butyryl-CoA (Sigma-Aldrich) and the consumed crotonic acid (TCI chemicals) were quantified by HPLC with a calibration curve. The samples were injected on a Zorbax SB-Aq column (Agilent) at 30° C. and eluted with 8.4 mM H2SO4 and a gradient of acetonitrile.
The CoA-transferase was tested as purified enzyme with a coupled assay using purified FabV from Treponema denticola (EC 1.3.1.44) (Uniprot Accession No: Q73Q47) (to convert crotonyl-CoA to butyryl-CoA). […] The produced butyryl-CoA (Sigma-Aldrich) and the consumed crotonic acid (TCI chemicals) were quantified by HPLC with a calibration curve. […]

3-methylcrotonic acid = experiment: Initial in vivo screening of Fdc homologues co-expressed with UbiX for 3-methylcrotonic acid decarboxylation (isobutene by GC); assay type: cell-based, E. coli; conditions: isobutene in headspace from 10 mM 3-methylcrotonic acid; Fdc (MCS1, N-terminal 6His-tag) and UbiX (MCS2) in pETDuet

Molecule	binding to TaFdcV, UV-Vis spectrum after desalting (TaFdcV)	inhibition of FDC [1]	ppm Average (3-methylcrotonic acid) [ppm]	other results
CC#CC(=O)O [2-butynoic acid]	covalent inhibitory adduct is formed			state of the adduct by ESI-MS and co-crystallization (TaFdcV): stalls as Int1
CCCC=CC(=O)O [2-hexenoic acid]	irreversibly binds	irreversible inhibitors		binding to TaFdc, UV-Vis spectrum after desalting (TaFdc): irreversibly binds; pentene production from hexenoic acid (AnFdc): limited to a single turnover
CCC=CC(=O)O [2-pentenoic acid]	irreversibly binds	irreversible inhibitors		binding to TaFdc, UV-Vis spectrum after desalting (TaFdc): irreversibly binds
C/C=C/C(=O)O [crotonic acid]	covalent inhibitory adduct is formed	irreversible inhibitors		binding by UV-Vis spectra (AnFdcII): readily bind the inhibitor; binding by UV-Vis spectra (AnFdc wild-type): cannot be detected
B1				conversion of crotonyl-CoA to butyryl-CoA (crotonyl-CoA): could convert all of it to butyryl-CoA
B2			4.8	
B3			17.6	
B4			3.3	
